This passage reports TGI and GI50 results from PubChem BioAssay (NCI).

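Test compounds were applied to cells in 96-well plates for 48 hours at 5 doses. GI50 is the concentration that inhibits growth by half. TGI is the concentration that stops growth completely.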 Where a SMILES comes first, the peptide text is derived from it. The star is where a group is joined. Cbz = O=C(OCc1ccccc1)* Bounds are passed on as bounds.

Some test systems named below: LOX IMVI melanoma; OVCAR-5 ovarian; HCC-2998 colon; SR leukemia; HL-60(TB) leukemia; T-47D breast; PC-3 prostate; SK-MEL-28 melanoma; SN12C renal.
Common to all, as to assay: DTP human tumour cell line panel, 48 h

With `COc1cc2cc(C(=O)N3CC(CCl)c4c3cc(O)c3ccccc43)[nH]c2c(OC)c1OC` (stereo not given), the TGI is 0.625 µM in the assay with LOX IMVI melanoma; 0.549 µM with OVCAR-5 ovarian; less than 0.005 µM in the assay with HCC-2998 colon; greater than 50 µM in the assay with SR leukemia; less than 0.005 µM in the assay on HL-60(TB) leukemia; greater than 50 µM with T-47D breast.
Regarding `C=CCN1C[C@@H](C)N([C@@H](c2ccc(C(=O)N(CC)CC)cc2)c2cccc(OC)c2)C[C@@H]1C`, the TGI with LOX IMVI melanoma, with PC-3 prostate, in the assay with OVCAR-5 ovarian, in the assay with SK-MEL-28 melanoma, in the assay with SN12C renal and in the assay on SR leukemia was greater than 100 µM throughout. Moreover, the total growth inhibition concentration (TGI) in the assay on T-47D breast is greater than 100 µM.
`Cc1nc2ccccc2n1Cc1nnc2n1N=C(c1ccccc1)CS2`: the TGI with PC-3 prostate was 53.6 µM; with OVCAR-5 ovarian it was greater than 100 µM; in the assay with SK-MEL-28 melanoma, greater than 100 µM; in the assay with SN12C renal, greater than 100 µM; with HCC-2998 colon, 68.1 µM; in the assay on HL-60(TB) leukemia, 95.3 µM. The molecule also returned a concentration for total growth inhibition (TGI) with T-47D breast of 43.5 µM.
Consider `Cc1c(-c2ccc(O)c(O)c2)oc(=O)c2c(O)cccc12`, for which the concentration for total growth inhibition (TGI) in the assay on PC-3 prostate is 52.1 µM; in the assay with OVCAR-5 ovarian it was 33.5 µM; with SN12C renal, 19.5 µM; in the assay on HCC-2998 colon, 22.1 µM; with HL-60(TB) leukemia, greater than 100 µM; with T-47D breast, 15.4 µM.
As to `CC(C)N(/C(F)=N\C(=O)Nc1ccccc1C(F)(F)F)C(C)C`, the TGI was greater than 100 µM in the assay on LOX IMVI melanoma; greater than 100 µM in the assay on PC-3 prostate; greater than 100 µM with OVCAR-5 ovarian; greater than 100 µM in the assay with SK-MEL-28 melanoma; greater than 100 µM with SN12C renal; 99 µM in the assay with HCC-2998 colon. In addition, the TGI in the assay with SR leukemia and in the assay with HL-60(TB) leukemia was greater than 100 µM in each case.
Turning to `S=C(c1c[nH]c2ccccc12)N1CCCCC1`, the TGI in the assay on LOX IMVI melanoma, in the assay with PC-3 prostate, in the assay with OVCAR-5 ovarian, in the assay on SK-MEL-28 melanoma, in the assay on SN12C renal and in the assay on SR leukemia was greater than 100 µM each time. In the assay with HL-60(TB) leukemia, this molecule returned a TGI greater than 100 µM.
As for `NC(C(=O)OC(=O)c1ccccc1)C(=O)OC(=O)c1ccccc1`, the TGI with LOX IMVI melanoma, in the assay with PC-3 prostate, in the assay with OVCAR-5 ovarian, in the assay on SK-MEL-28 melanoma, in the assay on SN12C renal and in the assay with T-47D breast was greater than 100 µM each time.
As for `COc1ccc(/C=C2\CN(C)CC3C2=NN(c2ccccc2)C3c2ccc(OC)cc2)cc1` (stereo not given), the TGI in the assay on LOX IMVI melanoma, in the assay on OVCAR-5 ovarian, with SK-MEL-28 melanoma, with SN12C renal, in the assay with HCC-2998 colon and in the assay with T-47D breast was greater than 100 µM throughout.
With `O=C1C=C2CC[C@H]3[C@@H]4CC[C@H](Oc5c6ccccc6nc6ccccc56)[C@H]4CC[C@@H]3[C@H]2CC1`, the TGI is greater than 100 µM in the assay on LOX IMVI melanoma; greater than 100 µM with PC-3 prostate; greater than 100 µM in the assay with OVCAR-5 ovarian; greater than 100 µM in the assay on SK-MEL-28 melanoma; greater than 100 µM in the assay with SN12C renal; 47.4 µM in the assay with HL-60(TB) leukemia. In the assay on T-47D breast, the TGI is greater than 100 µM.
As for `CCOC(=O)CNC(=O)C(C)NC(=O)C(NC(=O)OCc1ccccc1)C(C)C` (stereo not drawn) (Cbz-Val-Ala-Gly-OEt; configuration not given here), the TGI in the assay with PC-3 prostate, with OVCAR-5 ovarian, with SK-MEL-28 melanoma, with SN12C renal, in the assay with HCC-2998 colon and in the assay with SR leukemia was greater than 100 µM throughout.
Consider `Cc1ccc(S(=O)(=O)N2CCCSCCN(S(=O)(=O)c3ccc(C)cc3)CCCSCC2)cc1`, for which the TGI in the assay on OVCAR-5 ovarian, in the assay with SK-MEL-28 melanoma, with SN12C renal, in the assay with HCC-2998 colon, in the assay on HL-60(TB) leukemia and in the assay with T-47D breast was greater than 100 µM in each case.
As to `CCn1c(=O)c2c3cc(OC(C)=O)ccc3oc2c2ccc(OC(C)=O)cc21`, the TGI was greater than 100 µM with PC-3 prostate; greater than 100 µM with SK-MEL-28 melanoma; greater than 100 µM in the assay with SN12C renal; 58.2 µM in the assay on HCC-2998 colon; greater than 100 µM in the assay with SR leukemia; 75.4 µM in the assay on T-47D breast.
Regarding `O[C@H]1[C@H](O)[C@@H](Cn2nnc(-c3ccccc3)c2-c2ccccc2)OCO[C@@H]1Cn1nnc(-c2ccccc2)c1-c1ccccc1`, the TGI in the assay with LOX IMVI melanoma is 5.85 µM; in the assay with PC-3 prostate it was 8.83 µM; with OVCAR-5 ovarian, 6.49 µM; with SK-MEL-28 melanoma, greater than 67.1 µM; in the assay on SN12C renal, 7.55 µM; in the assay on HCC-2998 colon, 6.31 µM. Also, the TGI in the assay on HL-60(TB) leukemia was greater than 24 µM; in the assay on T-47D breast, 31.6 µM.
Consider `O=C1CCCC[C@H]1C(O)CC1CC(=O)N(c2ccccc2)C(=O)C1` (stereo not given in full), for which the TGI in the assay on LOX IMVI melanoma, with PC-3 prostate, in the assay with OVCAR-5 ovarian, in the assay with SK-MEL-28 melanoma, in the assay with SN12C renal and in the assay with HCC-2998 colon was greater than 100 µM each time. Besides, the TGI with SR leukemia and in the assay on HL-60(TB) leukemia was greater than 100 µM in each case.
Turning to `Cc1nnc([C@@]2(C)CC[C@H]3[C@@H](CCC4=CC(=O)CC[C@@]43C)[C@@H]2CC#N)o1`, the TGI with LOX IMVI melanoma, in the assay on PC-3 prostate, in the assay with OVCAR-5 ovarian, in the assay on SN12C renal, in the assay on SR leukemia and in the assay with HL-60(TB) leukemia was greater than 100 µM in each case.
On to `O=C1Nc2ccccc2/C1=C\c1c(Cl)nc2n1CCS2`, for which the TGI in the assay with LOX IMVI melanoma was greater than 100 µM; with PC-3 prostate it was 80.4 µM; with OVCAR-5 ovarian it was greater than 100 µM; in the assay on SK-MEL-28 melanoma it was greater than 100 µM; in the assay on SN12C renal it was greater than 100 µM; with HCC-2998 colon, 35.3 µM. In addition, the TGI came out at 48.8 µM in the assay with HL-60(TB) leukemia and 91 µM in the assay with T-47D breast.
Regarding `O=C1CCCC2=C1CC1=C(CCCC1=O)N2c1cccc([N+](=O)[O-])c1`, the TGI with LOX IMVI melanoma, in the assay with PC-3 prostate, with OVCAR-5 ovarian, in the assay on SK-MEL-28 melanoma, in the assay on SN12C renal and with HCC-2998 colon was greater than 100 µM in each case. Further, the TGI with SR leukemia and with HL-60(TB) leukemia was greater than 100 µM throughout.
Turning to `CCc1c(C)c2ccc(OCC(=O)N=Nc3c(O)[nH]c4ccccc34)c(C)c2oc1=O`, the GI50 in the assay with LOX IMVI melanoma was 0.832 µM; in the assay on OVCAR-5 ovarian it was greater than 33.3 µM; in the assay on SR leukemia, 1.2 µM. In addition, the total growth inhibition concentration (TGI) is greater than 7.31 µM in the assay on LOX IMVI melanoma, greater than 33.3 µM in the assay on OVCAR-5 ovarian and greater than 33.3 µM in the assay with SR leukemia.
On to `CCOC(=O)C1=C(C)NC(C)=C(C(=O)OCC)C1c1ccc(C)cc1`, for which the TGI is greater than 100 µM with LOX IMVI melanoma; 66 µM with PC-3 prostate; greater than 100 µM with OVCAR-5 ovarian; greater than 100 µM in the assay with SK-MEL-28 melanoma; 80.5 µM in the assay on SN12C renal; greater than 100 µM with HCC-2998 colon. Moreover, the TGI with T-47D breast was greater than 100 µM.
`NC(=O)SCC(=O)Nc1ccc2ncccc2c1`: the TGI with LOX IMVI melanoma, in the assay with PC-3 prostate, in the assay with OVCAR-5 ovarian, in the assay on SK-MEL-28 melanoma, with SN12C renal and in the assay on HCC-2998 colon was greater than 100 µM in each case. Besides, the total growth inhibition concentration (TGI) in the assay on SR leukemia and with HL-60(TB) leukemia was greater than 100 µM in each case.
On to `CCOC(=O)c1cn2c(ccc3sc4ccccc4c(=O)c32)n1`, for which the TGI in the assay on LOX IMVI melanoma, in the assay on PC-3 prostate, with OVCAR-5 ovarian, in the assay with SK-MEL-28 melanoma, with SN12C renal and with HCC-2998 colon was greater than 100 µM each time. In addition, the TGI with SR leukemia and with HL-60(TB) leukemia was greater than 100 µM in each case.
For `O=[N+]([O-])c1ccc(O)c(C=NCC2CCCN3CCCCC23)c1` (stereo not given), the TGI was greater than 100 µM with LOX IMVI melanoma, greater than 100 µM with PC-3 prostate, greater than 100 µM in the assay with OVCAR-5 ovarian and 74.5 µM in the assay on HCC-2998 colon.
Regarding `O=S(=O)(O)c1ccccc1N=Nc1ccc(N=Nc2c(O)ccc3ccccc23)c(S(=O)(=O)O)c1`, the TGI with PC-3 prostate, in the assay on OVCAR-5 ovarian, in the assay on SK-MEL-28 melanoma, with SN12C renal and in the assay on T-47D breast was greater than 100 µM each time.
Consider `CC(=O)OC1[C@H](n2ccnc2)C[C@H]2[C@@H]3CC=C4CC(N5CCCC5)CC[C@]4(C)[C@H]3CC[C@]12C` (stereo not given in full), for which the TGI was 38.1 µM in the assay with LOX IMVI melanoma; greater than 100 µM in the assay with PC-3 prostate; greater than 100 µM in the assay on OVCAR-5 ovarian; 60.4 µM with SK-MEL-28 melanoma; greater than 100 µM with SN12C renal; 35.2 µM in the assay with SR leukemia. In the assay with HL-60(TB) leukemia, the TGI was 81.3 µM.
In the case of `O=C1C2CC=CCC2C(=O)N1n1c(Cc2ccccc2)n[nH]c1=O` (stereo not given), the TGI in the assay on LOX IMVI melanoma, in the assay with PC-3 prostate, in the assay on OVCAR-5 ovarian, with SN12C renal, with HCC-2998 colon and in the assay with SR leukemia was greater than 100 µM each time. Besides, in the assay on T-47D breast, the TGI was greater than 100 µM.
In the case of `CC(C)(O)CCc1ccc(O)c2c(=O)c3c(O)c4c(cc3oc12)O[C@H]1OC=C[C@@]41O`, the TGI is greater than 100 µM with LOX IMVI melanoma; greater than 35.1 µM in the assay with PC-3 prostate; 8.74 µM in the assay on OVCAR-5 ovarian; 1.38 µM with SK-MEL-28 melanoma; greater than 100 µM in the assay with SN12C renal; less than 0.0176 µM in the assay on HCC-2998 colon. This molecule registered a TGI in the assay with SR leukemia greater than 100 µM.

By TGI is commonly meant the concentration at which net growth stops. As usually defined, the GI50 is the concentration that inhibits growth by half.
